Measurements taken from patent publication EP4644375A1, “SUBSTITUTED HYDROQUINOLINES FOR THE TREATMENT OF GLIOBLASTOMA MULTIFORME” (Molius Saglik Teknolojileri Anonim Sirketi, priority 2024, dated 2025).

How the values were obtained:
[1] = tested on: U138-MG human glioma cell; test: Cell proliferation analysis (MTT); assay type: cell-based; conditions: MTT; for activity at 10 µM / inhibition at 10 µM: Homo sapiens, 48 h
Protocol: (§1) U87-MG and U138-MG human glioma cell, were incubated with 10% fetal bovine serum (FBS) (Gibco, 10500-064), 1% L-glutamine (Gibco, 25030-024), in a humidified incubator with 5% CO2 at 37 °C. The cells were contained in DMEM High Glucose (Gibco, 41966-029) supplemented with 1% penicillin-streptomycin (P/S) (Gibco 15140-122) solution. The cytotoxic effects of the target compounds on U87-MG and U138-MG cell lines were assessed using the MTT (Thiazolyl Blue Tetrazolium Bromide) method. 7×10^3 cells were seeded into a 96-well plate in 100 µl DMEM High Glucose 10% FBS and 1% P/S. 24 hours after cell incubation, each target compound was added at a dose of 10 µM and the drug treatment was carried out for two days. After the incubation period, 10 µL of MTT solution was added to each well (5 mg/ml in PBS). After 2 hours, MTT solutions were removed from the wells. Then, 100 µl DMSO was added, and mixed to dissolve the formazan crystals. Cell proliferation was analysed by measuring the absorbance of dissolved formazan at a wavelength of 570 nm.
(§2) IC50 values were determined using the same method as above wherein the cells were treated with the target compounds at different doses.

U87-MG human glioma cell = test: Cell proliferation analysis (MTT); assay type: cell-based; conditions: MTT; for activity at 10 µM / inhibition at 10 µM: Homo sapiens, U-87 MG, 48 h
Protocol: as §1, §2

Compound | activity at 10 µM ([1]; 10 µM, two days) [%] | inhibition at 10 µM ([1]; 10 µM, two days) [%] | activity at 10 µM (U87-MG human glioma cell; 10 µM, two days) [%] | inhibition at 10 µM (U87-MG human glioma cell; 10 µM, two days) [%] | also measured
O=C1CCc2cc(OCC(=O)N3CCN(c4ccc(C(F)(F)F)cc4)CC3)ccc2N1 [TR-G087, 6-(2-oxo-2-(4-(4-(trifluoromethyl)phenyl)piperazin-1-yl)ethoxy)-3,4-dihydroquinolin-2(1H)-one] | 55 | 45 | 58 | 42 | 
O=C1CCc2cc(OC(=O)Nc3cccc4ccccc34)ccc2N1 [TR-G135, 2-oxo-1,2,3,4-tetrahydroquinolin-6-yl naphthalene-1-ylcarbamate] | 80 | 20 | 71 | 29 | 
NNC(=O)COc1ccc2c(c1)CCC(=O)N2 [TR-G019, 2-((2-oxo-1,2,3,4-tetrahydroquinolin-6-yl)oxy)acetohydrazide] | 75 | 25 | 75 | 25 | 
O=C(COc1ccc2c(c1)CCC(=O)N2)N/N=C/C1CCCCC1 [TR-G029, (E)-N'-(cyclohexylmethylene)-2-((2-oxo-1,2,3,4-tetrahydroquinolin-6-yl)oxy)acetohydrazide] | 68 | 32 | 82 | 18 | 
O=C(COc1ccc2c(c1)CCC(=O)N2)N/N=C/c1ccccc1 [TR-G035, (E)-N'-benzylidene-2-((2-oxo-1,2,3,4-tetrahydroquinolin-6-yl)oxy)acetohydrazide] | 74 | 26 | 86 | 14 | 
O=C(COc1ccc2c(c1)CCC(=O)N2)Nc1ccc([N+](=O)[O-])cn1 [TR-G122, N-(5-nitropyridin-2-yl)-2-((2-oxo-1,2,3,4-tetrahydroquinolin-6-yl)oxy)acetamide] | 90 | 11 | 82 | 18 | 
O=C1CCc2cc(OS(=O)(=O)c3ccc(Br)cc3)ccc2N1 [TR-G048, 2-oxo-1,2,3,4-tetrahydroquinolin-6-yl 4-bromobenzenesulfonate] | 61 | 39 | 69 | 31 | 
CCCc1ccc(/C=N/NC(=O)COc2ccc3c(c2)CCC(=O)N3)cc1 [TR-G028, (E)-2-((2-oxo-1,2,3,4-tetrahydroquinolin-6-yl)oxy)-N'-(4-propylbenzylidene)acetohydrazide] | 106 | -6 | 64 | 36 | 
2-oxo-1,2,3,4-tetrahydroquinolin-6-yl dimethylcarbamate [TR-G005] |  |  |  |  | Cell Proliferation (%) ([1]; 10 µM, two days): 77%; Inhibition (%) ([1]; 10 µM, two days): 23%; Cell Proliferation (%) (U87-MG human glioma cell; 10 µM, two days): 77%; Inhibition (%) (U87-MG human glioma cell; 10 µM, two days): 23%
O=C1CCc2cc(OC(=O)c3ccc(CCl)cc3)ccc2N1 [TR-G065, 2-oxo-1,2,3,4-tetrahydroquinolin-6-yl 4-(chloromethyl)benzoate] | 90 | 10 | 73 | 27 | 
O=C1CCc2cc(OCCCBr)ccc2N1 [TR-G074, 6-(3-bromopropoxy)-3,4-dihydroquinolin-2(1H)-one] |  | 19 |  | 15 | Cell Proliferation (%) ([1]; 10 µM, two days): 81%; Cell Proliferation (%) (U87-MG human glioma cell; 10 µM, two days): 85%
O=C1CCc2cc(OCc3cc(-c4c(F)cccc4Cl)no3)ccc2N1 [TR-G116, 6-((3-(2-chloro-6-fluorophenyl)isoxazol-5-yl)methoxy)-3,4-dihydroquinolin-2(1H)-one] |  | 41 |  | 7 | Cell Proliferation (%) ([1]; 10 µM, two days): 59%; Cell Proliferation (%) (U87-MG human glioma cell; 10 µM, two days): 93%
COc1ccc(C(=O)Oc2ccc3c(c2)CCC(=O)N3)c(OC)c1 [TR-G009, 2-oxo-1,2,3,4-tetrahydroquinolin-6-yl 2,4-dimethoxybenzoate] | 87 | 13 | 72 | 28 | 
CCOC(=O)COc1ccc2c(c1)CCC(=O)N2 [TR-G012, ethyl 2-((2-oxo-1,2,3,4-tetrahydroquinolin-6-yl)oxy)acetate] | 85 | 15 | 71 | 29 | 
O=C1CCc2cc(OCC3CC3)ccc2N1 [TR-G010, 6-(cyclopropylmethoxy)-3,4-dihydroquinolin-2(1H)-one] | 74 | 26 | 74 | 26 | 
O=C(COc1ccc2c(c1)CCC(=O)N2)N/N=C/c1ccco1 [TR-G025, (E)-N'-(furan-2-ylmethylene)-2-((2-oxo-1,2,3,4-tetrahydroquinolin-6-yl)oxy)acetohydrazide] | 90 | 10 | 75 | 25 | 
O=C1CCc2cc(OC(=O)Nc3ccccc3Br)ccc2N1 [TR-G136, 2-oxo-1,2,3,4-tetrahydroquinolin-6-yl (2-bromophenyl)carbamate] |  | 40 |  | 11 | Cell Proliferation (%) ([1]; 10 µM, two days): 60%; Cell Proliferation (%) (U87-MG human glioma cell; 10 µM, two days): 89%
O=C1CCc2cc(OCCBr)ccc2N1 [TR-G017, 6-(2-bromoethoxy)-3,4-dihydroquinolin-2(1H)-one] | 82 | 18 | 94 | 6 | 
CN1C(=O)/C(=N\NC(=O)COc2ccc3c(c2)CCC(=O)N3)c2cc(F)ccc21 [TR-G047, (Z)-N'-(5fluoro-1-methyl-2-oxoindolin-3-ylidene)-2-((2-oxo-1,2,3,4-tetrahydroquinolin-6-yl)oxy)acetohydrazide] | 62 | 38 | 77 | 23 | 
O=C1CCc2cc(OCC3CC(c4c(F)cccc4Cl)=NO3)ccc2N1 (stereo not drawn) [TR-G150, 6-((3-(2-chloro-6-fluorophenyl)-4,5-dihydroisoxazol-5-yl)methoxy)-3,4-dihydroquinolm-2(1H)-one] | 79 | 21 | 97 | 3 | 
COc1ccccc1NC(=O)Oc1ccc2c(c1)CCC(=O)N2 [TR-G132, 2-oxo-1,2,3,4-tetrahydroquinolin-6-yl (2-methoxyphenyl)carbamate] | 73 | 27 | 78 | 22 | 
O=C1CCc2cc(OCCCCc3nnnn3C3CCCCC3)ccc2N1 [Cilostazol, reference compound] |  |  |  |  | Inhibition (%) ([1]; reference drugs): 12%; Proliferation (%) ([1]; reference drugs): 88%; Inhibition (%) (U87-MG human glioma cell; reference drugs): 22%; Proliferation (%) (U87-MG human glioma cell; reference drugs): 78%
C=CC(=O)N(NC(=O)COc1ccc2c(c1)CCC(=O)N2)C(=O)C=C [TR-G040, N-acryloyl-N'-(2-((2-oxo-1,2,3,4-tetrahydroquinolin-6-yl)oxy)acetyl)acrylohydrazide] |  | 2 |  | 9 | Cell Proliferation (%) ([1]; 10 µM, two days): 98%; Cell Proliferation (%) (U87-MG human glioma cell; 10 µM, two days): 91%
O=C1CCc2cc(OCC3CC(c4ccc(Cl)cc4)=NO3)ccc2N1 (stereo not drawn) [TR-G070, 6-((3-(4-chlorophenyl)-4,5-dihydroisoxazol-5-yl)methoxy)-3,4-dihydroquinolin-2(1H)-one] | 79 | 21 | 68 | 33 | 
COc1ccc(NC(=O)COc2ccc3c(c2)CCC(=O)N3)cc1OC [TR-G077, N-(3,4-dimethoxyphenyl)-2-((2-oxo-1,2,3,4-tetrahydroquinolin-6-yl)oxy)acetamide] | 88 | 12 | 88 | 12 | 
CC(C)CCN1C(=O)CCc2cc(OCCCCc3nnnn3C3CCCCC3)ccc21 [TR-G101, 6-(4-(1-cyclohexyl-1H-tetrazol-5-yl)butoxy)-1-isopentyl-3,4-dihydroquinolin-2(1H)-one] | 76 | 24 | 76 | 24 | 
CN1CCN(c2ccc(NC(=O)COc3ccc4c(c3)CCC(=O)N4)cc2)CC1 [TR-G043, N-(4-(4-methylpiperazin-1-yl)phenyl)-2-((2-oxo-1,2,3,4-tetrahydroquinolin-6-yl)oxy)acetamide] | 74 | 26 | 73 | 27 | 
O=C1CCc2cc(OS(=O)(=O)c3ccc(C(F)(F)F)cc3)ccc2N1 [TR-G073, 2-oxo-1,2,3,4-tetrahydroquinolin-6-yl 4-(trifluoromethyl)benzenesulfonate] | 94 | 6 | 87 | 13 | 
CC(=O)c1ccc(-n2cc(COc3ccc4c(c3)CCC(=O)N4)nn2)cc1 [TR-G093, 6-((1-(4-acetylphenyl)-1H-1,2,3-triazol-4-yl)methoxy)-3,4-dihydroquinolin-2(1H)-one] | 63 | 38 | 55 | 45 | 
2-oxo-1,2,3,4-tetrahydroquinolin-6-yl diphenylcarbamate [TR-G020] |  |  |  |  | Cell Proliferation (%) ([1]; 10 µM, two days): 80%; Inhibition (%) ([1]; 10 µM, two days): 20%; Cell Proliferation (%) (U87-MG human glioma cell; 10 µM, two days): 72%; Inhibition (%) (U87-MG human glioma cell; 10 µM, two days): 29%
